Results as given in patent US6987117B2, “Antidepressant azaheterocyclylmethyl derivatives of 1,4-dioxino[2,3-b]pyridine” (Wyeth, priority 2001, dated 2006).
Structures can show the parent of a compound that is named as a salt.

Columns and labels:
human 5-HT1A receptors = target: T1, human 5-HT1A receptors (Homo sapiens, UniProt P08908); assay: [3H] 8-OHDPAT displacement, 5-HT1A receptor affinity; format: binding
T1 construct: expressed in transfected cells; host or cells: CHO cells (stably transfected)
T1 sequence (P08908 1-422): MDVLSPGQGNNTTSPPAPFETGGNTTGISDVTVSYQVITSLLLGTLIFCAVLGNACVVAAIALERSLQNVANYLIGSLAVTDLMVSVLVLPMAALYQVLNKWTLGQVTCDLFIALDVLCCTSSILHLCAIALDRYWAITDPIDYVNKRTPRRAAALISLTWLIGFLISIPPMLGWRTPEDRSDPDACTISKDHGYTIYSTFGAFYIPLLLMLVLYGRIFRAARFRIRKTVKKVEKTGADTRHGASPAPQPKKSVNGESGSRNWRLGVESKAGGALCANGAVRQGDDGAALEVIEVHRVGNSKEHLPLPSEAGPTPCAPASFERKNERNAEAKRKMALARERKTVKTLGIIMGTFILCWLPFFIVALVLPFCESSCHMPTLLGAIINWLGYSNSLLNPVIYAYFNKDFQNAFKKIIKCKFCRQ
Description: High affinity for the serotonin 5-HT1A receptor was established by testing the claimed compound's ability to displace [^3H] 8-OHDPAT (dipropylaminotetralin) from the 5-HT1A serotonin receptor following a modification of the procedure of Hall et al., J. Neurochem. 44, 1685 (1985) which utilizes CHO cells stably transfected with human 5-HT1A receptors.

[1] = target: T2, cloned human 5-HT1A receptors (Homo sapiens, UniProt P08908); assay: 35S-GTPγS binding assay, 5-HT1A antagonist activity; format: biochemical; details: reversal of standard agonist 8-OHDPAT; for IC50: read-out: 5-HT1A Function IC50
T2 construct: expressed in transfected cells
T2 sequence (P08908 1-422): T1 sequence (P08908 1-422)
Method: Antagonist activity at 5-HT1A receptors was established by using a ^35S-GTPγS binding assay similar to that used by Lazareno and Birdsall (Br. J. Pharmacol. 109: 1120, 1993), in which the test compound's ability to affect the binding of ^35S-GTPγS to membranes containing cloned human 5-HT1A receptors was determined. Agonists produce an increase in binding whereas antagonists produce no increase but rather reverse the effects of the standard agonist 8-OHOPAT. The test compound's maximum inhibitory effect is represented as the Imax, while its potency is defined by the IC50.

serotonin transporter = target: T3, serotonin transporter (Rattus norvegicus, UniProt P31652); assay: 3H-paroxetine displacement, serotonin transporter affinity; format: binding
T3 construct: displace ^3H-paroxetine from male rat frontal cortical membranes; from tissue; host or cells: male rat frontal cortex membranes
T3 sequence (P31652 whole entry): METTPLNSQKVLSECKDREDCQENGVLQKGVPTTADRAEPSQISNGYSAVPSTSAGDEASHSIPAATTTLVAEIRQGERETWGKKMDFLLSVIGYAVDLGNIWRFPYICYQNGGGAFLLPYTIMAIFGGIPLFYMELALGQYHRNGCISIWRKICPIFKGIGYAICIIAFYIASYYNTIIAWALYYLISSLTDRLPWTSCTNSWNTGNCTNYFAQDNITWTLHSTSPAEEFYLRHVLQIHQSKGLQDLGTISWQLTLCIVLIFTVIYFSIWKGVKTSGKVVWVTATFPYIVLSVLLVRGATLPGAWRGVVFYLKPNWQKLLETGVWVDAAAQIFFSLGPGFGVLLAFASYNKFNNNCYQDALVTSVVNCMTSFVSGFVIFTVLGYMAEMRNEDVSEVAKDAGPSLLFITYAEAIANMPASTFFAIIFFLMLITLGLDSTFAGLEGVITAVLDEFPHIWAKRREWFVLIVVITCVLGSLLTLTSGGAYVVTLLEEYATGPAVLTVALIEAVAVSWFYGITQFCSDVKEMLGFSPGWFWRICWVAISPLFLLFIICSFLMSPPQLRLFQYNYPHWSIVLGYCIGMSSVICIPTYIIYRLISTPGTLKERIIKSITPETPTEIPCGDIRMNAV

`C1=C(c2c[nH]c3ccccc23)CCN(C[C@H]2COc3cccnc3O2)C1` (as salt: oxalate) [Example 1] showed a melting point of 116 °C.

Molecule `Fc1ccc2[nH]cc(C3=CCN(CC4COc5cccnc5O4)CC3)c2c1` (centres unmarked) (as salt: oxalate) [Example 2, 3-{[4-(5-Fluoro-1H-indol-3-yl)-3,6-dihydro-1(2H)-pyridinyl]methyl}-2,3-dihydro{1,4]dioxino[2,3-b]pyridine] has a melting point of 124 °C.

In the case of `N#Cc1ccc2[nH]cc(C3=CCN(CC4COc5cccnc5O4)CC3)c2c1` (centres unmarked) (as salt: oxalate) [Example 3, 3-{1-[2,3-Dihydro[1,4]dioxino[2,3-b]pyridin-3-ylmethyl]-1,2,3,6-tetrahydro-4-pyridinyl}-1H-indole-5-carbonitrile], the melting point is reported as 165 °C.

Molecule `Fc1ccc2c(C3=CCN(CC4COc5cccnc5O4)CC3)c[nH]c2c1` (centres unmarked) (as salt: oxalate) [Example 4, 3-{[4-(6-Fluoro-1H-indol-3-yl)-3,6-dihydro-1(2H)-pyridinyl]methyl}-2,3-dihydro[1,4]dioxino[2,3-b]pyridine] has a melting point of 120 °C.

`C1=C(c2c[nH]c3ccccc23)CCN(C[C@H]2COc3cccnc3O2)C1` [Example 1] gave a Ki (human 5-HT1A receptors) of 14.3 nM, an IC50 [1] of 197 nM and a Ki (serotonin transporter) of 9.5 nM.

With `Fc1ccc2[nH]cc(C3=CCN(CC4COc5cccnc5O4)CC3)c2c1` (centres unmarked) [Example 2, 3-{[4-(5-Fluoro-1H-indol-3-yl)-3,6-dihydro-1(2H)-pyridinyl]methyl}-2,3-dihydro{1,4]dioxino[2,3-b]pyridine] the Ki (human 5-HT1A receptors) was 6.81 nM, the IC50 [1] was 57 nM and the Ki (serotonin transporter) was 2.39 nM.

In the case of `N#Cc1ccc2[nH]cc(C3=CCN(CC4COc5cccnc5O4)CC3)c2c1` (centres unmarked) [Example 3, 3-{1-[2,3-Dihydro[1,4]dioxino[2,3-b]pyridin-3-ylmethyl]-1,2,3,6-tetrahydro-4-pyridinyl}-1H-indole-5-carbonitrile], the Ki (human 5-HT1A receptors) is reported as 22.4 nM, the “5-HT1A Function Imax (maximum inhibitory effect)” value [1] is reported as 100% and the IC50 [1] is reported as 183 nM. The Ki (serotonin transporter) was 2.58 nM.

In the case of `Fc1ccc2c(C3=CCN(CC4COc5cccnc5O4)CC3)c[nH]c2c1` (centres unmarked) [Example 4, 3-{[4-(6-Fluoro-1H-indol-3-yl)-3,6-dihydro-1(2H)-pyridinyl]methyl}-2,3-dihydro[1,4]dioxino[2,3-b]pyridine], the Ki (human 5-HT1A receptors) is reported as 10.2 nM, the IC50 [1] is reported as 618 nM and the Ki (serotonin transporter) is reported as 1.21 nM.
